# In patent US20220062299A1, “USE OF GLUCOCORTICOID STEROIDS IN PREVENTING AND TREATING CONDITIONS OF MUSCLE WASTING, AGING AND METABOLIC DISORDER” (NORTHWESTERN UNIVERSITY, priority 2018, published 2022):
# How the values were obtained:
# [1] = system: mdx mice; test: Multi-modal imaging (FDG-PET, microCT, MR) of live mdx mice; assay type: in vivo, mouse; settings: weekly prednisone
# From the text: Multi-modal Imaging (FDG-PET, microCT, MR). Mice were anesthetized in an induction chamber with 3% isoflurane in oxygen, weighed, and then transferred to a dedicated imaging bed with isoflurane delivered via nosecone at 1-2%. Mice were placed in the prone position on a plastic bed and immobilized to minimize changes in position between scans. Respiratory signals were monitored using a digital monitoring system developed by Mediso (Mediso-USA, Boston, Mass.). Mice were imaged with a preclinical microPET/CT imaging system (nanoScan PET/CT, Mediso-USA, Boston, Mass.). CT data was acquired with a 2.2× magnification, <60 μm focal spot, 2×2 binning, with 480 projection views over a full circle, using 50 kVp/[…], with a 300 ms exposure time. The projection data was reconstructed with a voxel size of 250 μm and using filtered (Butterworth filter) backprojection software from Mediso. A bone mineral density standard (GRM GmbH, Moehrendorf, Germany) with hydroxyapatite (HA) from 0 to 1200 mg HA/cm^3 was used to convert the CT images from Hounsfield units to bone mineral density. The HA standard was imaged with the same parameters. For PET imaging, a target of 10 MBq of ^18F-fluordeoxyglucose (FDG) was injected intravenously after mice had been fasted for four hours. PET acquisition parameters were as follows: 1:1 coincidence detection and 30-minute acquisition time. MLEM reconstruction was used with CT for attenuation correction and scattering. Pixel size was set to 0.3×0.3 mm. After completion of PET/CT, each mouse was transferred to the MRI scanner and a reference standard consisting of one tube of canola oil and one tube of water was positioned above its back. MRI was performed on a 9.4T Bruker Biospec MRI system with a 30 cm bore, a 12 cm gradient insert, and an AutoPac laser positioned motorized bed (Bruker Biospin Inc, Billerica, Mass.). Respiratory signals and temperature were monitored using an MR-compatible physiologic monitoring system (SA Instruments, Stonybrook, N.Y.); a warm water circulating system was used to maintain body temperature. A 72 mm quadrature volume coil (Bruker Biospin, Inc, Billerica, Mass.) was used to image each mouse's whole body in two overlapping fields of view. First, the mouse was positioned with the thorax at the magnet's isocenter and imaged using a T1-weighted accelerated spin echo sequence (Rapid Acquisition with Relaxation Enhancement, RARE) with five pairs of interleaved axial slice stacks covering brain to mid-abdomen. TR was nominally set at 1000 ms; with respiratory gating the functional TR was approximately 1500 ms (range 1300-2000 ms). The following additional parameters were used: TE=6.25 ms, RARE factor 4, MTX=256×256, FOV 45×45 mm, 15 slices of 1 mm thick, 4 mm gap between slices, and 2 signal averages. […]
# [2] = system: Dysf-null mice; test: Body weight, muscle mass, muscle function, plethysmography, echocardiography, Dysf-null mice, 32 weeks; assay type: in vivo, mouse; settings: weekly prednisone
# Experimental: Histology. Excised tissues (muscles, omental fat, heart) were placed in 10% formaldehyde (Cat #245-684; Fisher Scientific, Waltham, Mass.) for histologic processing. Seven μm sections from the center of paraffin-embedded muscles were stained with hematoxylin and eosin (H&E; cat #12013B, 1070C; Newcomer Supply, Middleton, Wis.) and Masson's trichrome (Cat #HT-15; Sigma-Aldrich; St. Louis, Mo.). Myofiber/adipocyte CSA quantitation was conducted on 400 myofibers/adipocytes per tissue per mouse. Imaging was performed using a Zeiss Axio Observer A1 microscope, using 10× and 20× (short-range) objectives. Brightfield pictures were acquired via Gryphax software (version 1.0.6.598; Jenoptik, Jena, Germany). Area quantitation was performed by means of ImageJ (Schneider et al., 2012). Sample processing, imaging and CSA quantitation were conducted blinded to treatment groups.
# Muscle function, whole-body plethysmography, echocardiography. Forelimb grip strength was monitored using a meter (Cat #1027SM; Columbus Instruments, Columbus, Ohio) blinded to treatment groups. Animals performed ten pulls with 5 seconds rest on a flat surface between pulls. Immediately before sacrifice, in situ tetanic force from tibialis anterior muscle was measured using a Whole Mouse Test System (Cat #1300A; Aurora Scientific, Aurora, ON, Canada) with a 1N dual-action lever arm force transducer (3000-LR, Aurora Scientific, Aurora, ON, Canada) in anesthetized animals (0.8 I/min of 1.5% isoflurane in 100% O2). […] Time of contraction was assessed as time to max tetanic value within the 0.0-0.5 sec range of each tetanic contraction, while time of relaxation was assessed as time to 90% min tetanic value within the 0.5-0.8 sec range of every tetanus. […] Data was recorded for a total of 15 minutes broken into 3 consecutive 5-minute periods. […] Cardiac function was assessed by echocardiography, which was conducted under anesthesia (0.8 L/min of 1.5% vaporized isoflurane in 100% O2) on mice between 2 and 5 days before sacrifice. […]
smiles,measurement,setting,value
"C[C@]12C=CC(=O)C=C1CC[C@@H]1[C@@H]2C(=O)C[C@@]2(C)[C@H]1CC[C@]2(O)C(=O)CO [prednisone, Prednisone]",18FDG uptake in fat,[1],decreasing
same,fat mass accumulation (magnetic resonance),[1],did not increase
same,muscle uptake of 18FDG,[1],increase
same,"osteoporosis (bone mineral density, tomography)",[1],did not induce osteoporosis
same,body weight trend,[2],did not induce significant changes
same,muscle mass,[2],increased
same,"performance of limb muscles, respiratory muscles, and heart",[2],improved
